Assay results as given in paper PMC7822874, “Chemoprotective antimalarials identified through quantitative high-throughput screening of Plasmodium blood and liver stage parasites” (Scientific Reports, 2021).
Where “and” joins values, the source holds several entries; their conditions need not be identical. Equal entries are not always repeated.

Legend:
[1] = tested on: T1, Plasmodium falciparum Dd2-attB (parental line), asexual blood stages; assay: microbe, parasite or virus in culture; set-up: replicate k of 3 (each line is one of three independent assays; the three lines of one compound and parasite line follow each other); details: n = 1; for Individual replicates / Log AC50 (M): 72 h; for AC50: Plasmodium falciparum, DD2, 72 h, read-out: Individual replicates / Log AC50 (converted)
T1 construct: Dd2-attB, the isogenic parental line
Procedure, shortened: (§1)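 Statistics: two-sided Student's t-test between parental and transgenic values, from three independent assays. The transgene encodes a fumarate-dependent DHODH from yeast, independent of the parasite mETC.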

[2] = tested on: T2, Plasmodium falciparum Dd2-attB-ScDHODH (transgenic line expressing yeast DHODH), asexual blood stages; assay: organism not typed; set-up: replicate k of 3 (each line is one of three independent assays; the three lines of one compound and parasite line follow each other)
T2 construct: Dd2-attB-ScDHODH, the transgenic line that expresses yeast DHODH
Procedure, shortened: as §1

[3] = 72 h; n = 1; read-out: Individual replicates / Log AC50 (converted)

Structure (SMILES)	Individual replicates / Log AC50 (M) [1]	Individual replicates / Log AC50 (M) ([2]; 72 h, n = 1)	AC50 [1] [µM]	AC50 [2, 3] [µM]	Individual replicates / Log AC50 (M) ([2]; 72 h; n = 1)
c1ccc(CCn2nc(-c3cnccn3)nc2CCCN2CCCCC2)cc1 [NCGC00390064-01]	-4.9986 Log AC50 (M) and -5.1486 Log AC50 (M) and -4.8486 Log AC50 (M)	-4.7986 Log AC50 (M) and -5.0986 Log AC50 (M) and -4.7486 Log AC50 (M)	–	–	–
CN(C)CCn1nc(-c2ccccc2O)nc1-c1ccccc1 [NCGC00390082-01]	-4.7486 Log AC50 (M) and -4.8486 Log AC50 (M)	-4.7986 Log AC50 (M)	14.2	12.6	–
CN(C)CCn1nc(-c2ccccc2)nc1-c1ccccc1O [NCGC00390083-01]	-5.1486 Log AC50 (M) and -5.1986 Log AC50 (M)	-5.1486 Log AC50 (M)	7.1	7.97	–
Cc1nn2c(c1-c1ccccc1-c1ccccc1)N(CC1CC1)CCC2 [NCGC00420435-02]	-4.7986 Log AC50 (M) and -4.8486 Log AC50 (M)	-4.7486 Log AC50 (M) and -4.8486 Log AC50 (M)	14.2	15.9	–
Cc1nn2c(c1-c1ccccc1-c1ccccc1)N(Cc1ccc(C(=O)O)s1)CCC2 [NCGC00420478-02]	-4.8986 Log AC50 (M) and -4.7986 Log AC50 (M)	-4.7486 Log AC50 (M)	17.8	14.2	–
C/C=C(\C#N)C(=O)N1CCCN(c2cc(NCCC(=O)OC)nc(-c3ccccn3)n2)CC1 [NCGC00420778-01]	–	–	15.9	14.2	–
CCO/C=C(\C#N)C(=O)N1CCCN(c2cc(NCCC(=O)OC)nc(-c3ccccn3)n2)CC1 [NCGC00420783-01]	-5.0986 Log AC50 (M) and -5.0486 Log AC50 (M)	-5.0486 Log AC50 (M) and -4.8986 Log AC50 (M)	8.94	10	–
COC(=O)c1ccnc2cc(C(OCCN3CCCCC3)c3ccccc3Cl)[nH]c12 (stereo not drawn) [NCGC00420857-01]	-5.2986 Log AC50 (M) and -5.1986 Log AC50 (M)	-5.0986 Log AC50 (M)	4.48	5.03	–
COC(=O)c1ccnc2cc(C(OCCC3CCCCC3)c3ccccc3Cl)[nH]c12 (stereo not drawn) [NCGC00421833-01]	-4.7986 Log AC50 (M) and -4.7486 Log AC50 (M)	-4.7486 Log AC50 (M) and -4.7986 Log AC50 (M)	15.9	17.8	–
O=C(O)c1ccnc2cc(C(OCCN3CCOCC3)c3ccccc3Cl)[nH]c12 (stereo not drawn) [NCGC00421890-01]	-5.1986 Log AC50 (M)	-5.3986 Log AC50 (M) and -5.2486 Log AC50 (M)	5.64	5.03	–
COc1ccc(-c2c(-c3cc(N)ccn3)ncn2C)cc1 [NCGC00421914-01]	-4.7986 Log AC50 (M) and -4.9486 Log AC50 (M)	-4.9986 Log AC50 (M)	14.2	12.6	–
O=C(O)c1ccnc2cc(C(OCCCN3CCCCC3)c3ccccc3Cl)[nH]c12 (stereo not drawn) [NCGC00421948-01]	-4.9486 Log AC50 (M)	–	7.97	5.03	–
CCOC(=O)C1(Cc2ccc(Cl)cc2)CCN(C(=O)c2cc(C)oc2C)CC1 [NCGC00426139-02]	-5.0986 Log AC50 (M)	-4.8986 Log AC50 (M) and -4.7986 Log AC50 (M)	8.94	15.9	–
CCCN1C(CC(C)C)=N[S+](=O)([O-])c2cc(NC(=O)c3cccs3)ccc21 [NCGC00473217-02]	-7.0986 Log AC50 (M) and -6.8486 Log AC50 (M) and -6.8986 Log AC50 (M)	-6.3986 Log AC50 (M) and -6.0986 Log AC50 (M) and -6.3486 Log AC50 (M)	–	–	–
COC(=O)c1ccnc2cc(C(OCCC3CCCN3C)c3ccccc3Cl)[nH]c12 (stereo not drawn) [NCGC00479019-01]	-5.1986 Log AC50 (M) and -5.1486 Log AC50 (M)	-5.2986 Log AC50 (M) and -5.1486 Log AC50 (M)	5.03	7.1	–
CC(OCCN1CCCCC1)c1cnn(-c2cc(CO)ccn2)c1-c1cccc(-c2ccccc2)c1 (stereo not drawn) [NCGC00479246-01]	-5.5486 Log AC50 (M) and -5.3986 Log AC50 (M)	-5.3486 Log AC50 (M)	3.56	3.56	–
COC(=O)c1ccnc2sc(N(CCCN3CCCCC3)c3ccccc3Cl)nc12 [NCGC00480953-01]	-5.2486 Log AC50 (M) and -5.3486 Log AC50 (M)	-5.0986 Log AC50 (M)	4.48	4.48	–
CN1CCC(CCOC(c2cc3nccc(C(=O)O)c3[nH]2)c2ccccc2Cl)C1 (stereo not drawn) [NCGC00481023-01]	–	–	12.6	8.94	–

Structure (SMILES)	Individual replicates / Log AC50 (M) [1]	Individual replicates / Log AC50 (M) ([2]; 72 h, n = 1)	AC50 [1] [µM]	AC50 [2, 3] [µM]	Individual replicates / Log AC50 (M) ([2]; 72 h; n = 1)
COC(=O)c1ccnc2cc(C(OCCC3CCCN3C)c3ccccc3Cl)sc12 (stereo not drawn) [NCGC00481040-01]	-5.0986 Log AC50 (M) and -4.9486 Log AC50 (M)	-4.8486 Log AC50 (M)	8.94	12.6	–
CCCCOC(=O)c1ccnc2cc(C(OCCN3CCCCC3)c3ccccc3Cl)sc12 (stereo not drawn) [NCGC00481505-01]	-5.2486 Log AC50 (M) and -5.0986 Log AC50 (M)	-5.0486 Log AC50 (M) and -5.1486 Log AC50 (M)	8.94	14.2	–
CC(C)OC(=O)c1ccnc2cc(C(OCCN3CCCCC3)c3ccccc3Cl)sc12 (stereo not drawn) [NCGC00481510-01]	-5.1986 Log AC50 (M)	-5.0986 Log AC50 (M)	7.1	8.94	–
CCOC(=O)c1ccnc2cc(C(OCCN3CCCCC3)c3ccccc3Cl)sc12 (stereo not drawn) [NCGC00481512-01]	-5.1486 Log AC50 (M)	-5.1986 Log AC50 (M) and -5.0986 Log AC50 (M)	5.64	7.97	–
Cc1ccccc1C(OCCN1CCCCC1)c1cc2nccc(B(O)O)c2s1 (stereo not drawn) [NCGC00481524-01]	-4.8486 Log AC50 (M) and -4.7986 Log AC50 (M)	–	14.2	15.9	-4.7986 Log AC50 (M)
Cc1ccccc1C(OCCN1CCCCC1)c1cc2nccc(Cl)c2s1 (stereo not drawn) [NCGC00481525-01]	-5.0486 Log AC50 (M) and -4.9986 Log AC50 (M)	-5.0486 Log AC50 (M)	8.94	10	–
CCCCOC(=O)c1ccnc2cc(C(OCCN3CCCCC3)c3ccccc3C)sc12 (stereo not drawn) [NCGC00481621-01]	-5.0986 Log AC50 (M) and -5.0486 Log AC50 (M)	-4.7986 Log AC50 (M)	8.94	14.2	–
CCCCOC(=O)c1ccnc2cc(C(=O)N(CCN(C)C)c3ccccc3)sc12 [NCGC00481684-01]	-4.7986 Log AC50 (M)	–	17.8	14.2	–
CCCCOC(=O)c1ccnc2cc(-c3nc4ccccc4[nH]3)sc12 [NCGC00482448-01]	-5.7486 Log AC50 (M) and -5.6986 Log AC50 (M)	-5.5986 Log AC50 (M) and -5.6986 Log AC50 (M)	2	2	–
N#CNC(=O)c1ccnc2cc(C(OCCN3CCCCC3)c3ccccc3Cl)sc12 (stereo not drawn) [NCGC00483126-01]	-4.8986 Log AC50 (M) and -4.7486 Log AC50 (M)	-4.7986 Log AC50 (M)	14.2	15.9	–
CCOC(=O)c1ccnc(-n2ncc(C(OCCN3CCCCC3)c3ccccc3)c2-c2ccccc2Cl)c1 (stereo not drawn) [NCGC00484789-01]	-5.0486 Log AC50 (M) and -4.9986 Log AC50 (M)	-5.0486 Log AC50 (M) and -4.9486 Log AC50 (M)	8.94	14.2	–
O=C(O)c1ccnc2cc(-c3nc4ccccc4n3CCN3CCCCC3)sc12 [NCGC00485470-01]	-5.2986 Log AC50 (M) and -5.1986 Log AC50 (M)	-5.2486 Log AC50 (M)	6.33	7.1	–
O=C(O)c1ccnc(-n2ncc(C(OCCN3CCCCC3)c3ccc(Cl)cc3)c2-c2ccccc2)c1 (stereo not drawn) [NCGC00487049-01]	-4.7986 Log AC50 (M) and -4.8486 Log AC50 (M)	-4.7486 Log AC50 (M)	15.9	15.9	–
O=C(O)c1ccnc(-n2ncc(C(CC3CC3)OCCN3CCCCC3)c2-c2cccc(-c3ccccc3)c2)c1 (stereo not drawn) [NCGC00487050-01]	-4.7986 Log AC50 (M) and -4.8486 Log AC50 (M)	-4.7986 Log AC50 (M) and -4.7486 Log AC50 (M)	15.9	17.8	–
O=C(O)c1ccnc(-n2ncc(C(OCCN3CCCCC3)c3cccc(-c4ccccc4)c3)c2-c2cccc(-c3ccccc3)c2)c1 (stereo not drawn) [NCGC00487052-01]	-5.3986 Log AC50 (M)	-5.4986 Log AC50 (M) and -5.2986 Log AC50 (M) (2×)	4.48	–	–
O=C(O)c1ccnc(-n2ncc(C(OCCN3CCCCC3)c3cccc(-c4ccccc4)c3)c2-c2cccc(-c3ccccc3)c2)c1 (stereo not drawn) [NCGC00487052-02]	-5.3986 Log AC50 (M) and -5.4486 Log AC50 (M) and -5.3486 Log AC50 (M)	-5.1486 Log AC50 (M) and -5.2486 Log AC50 (M)	–	–	–
CC(C)c1c(-c2cnn(C(C)(C)C)c2)[nH]c2c(C#N)cnn2c1=O [NCGC00488278-02]	–	-4.7986 Log AC50 (M)	15.9	10	–
